In patent publication US9492495B2, “Therapeutic use of agonists or antagonists of bradykinin receptor 1 or 2, for modulation collateral blood vessel growth” (MAX-DELBRUECK-CENTRUM FUER MOLEKULARE MEDIZIN, priority 2010, dated 2016):

Tests used:
[1] = test system: cerebral arteriogenesis (posterior cerebral artery collateral pathway); assay: 3-vessel occlusion (3-VO) cerebral arteriogenesis model: collateral growth / posterior cerebral artery diameter; type: in vivo, rat; conditions: for arteriogenesis (collateral growth) / cerebral arteriogenesis: rat 3-VO model; for arteriogenesis (collateral growth): antagonist treatment, 3 weeks post 3-VO (FIG. 5); for artery diameter changes (posterior cerebral artery) / collateral arterial growth: rat 3-VO, 3 weeks; for artery diameter changes (posterior cerebral artery): compared with untreated controls; for collateral arterial growth: ipsilateral and contralateral collateral pathways (FIGS. 5B and 5C); for cerebral arteriogenesis: BR1 agonist treatment, 1 week post 3-VO (FIG. 6)
Experimental: Pharmacological modulation of arteriogenesis was analyzed using a 3 vessel occlusion (3-VO) model for cerebral arteriogenesis in the rat (Occlusion of both vertebral arteries and one carotid artery). Upon occlusion of three of four blood-supplying arteries to the brain, blood flow is redistributed by the recruitment of collateral pathways such as the posterior cerebral artery to supply the hypoperfusion area with blood. The 3-VO model in the rat has been established since 2003 and is acknowledged as a hypoperfusion model for testing cerebral arteriogenesis (Busch, Buschmann et al. 2003). By using the 3-VO model, relevant therapeutic stimulation of arteriogenesis was shown for instance by the application of GM-CSF (Buschmann, Circulation 2003). Either by inhibition or stimulation of the bradykinin receptor signaling pathways, arteriogenesis was determined and physiological parameters of the brain were tested. […] The characterization of arteriogenesis was carried out via measurement of the artery or blood vessel diameter (posterior cerebral artery-PCA) in addition to via a measurement of the cerebrovascular reactivity (perfusion reserves in the brain). Cerebrovascular anatomy was studied after maximal vasodilation by a modification of the postmortem latex perfusion method of Maeda et al (Maeda, Hata et al. 1998).

[2] = test system: cerebrovascular reactivity (perfusion reserves in the brain); assay: 3-VO cerebral arteriogenesis model: cerebrovascular reactivity (acetazolamide, laser-doppler); type: in vivo; conditions: rat; for cerebrovascular reactivity (CVR), increase in blood flow: three weeks after 3-VO (FIG. 5D)
Experimental: Pharmacological modulation of arteriogenesis was analyzed using a 3 vessel occlusion (3-VO) model for cerebral arteriogenesis in the rat (Occlusion of both vertebral arteries and one carotid artery). Upon occlusion of three of four blood-supplying arteries to the brain, blood flow is redistributed by the recruitment of collateral pathways such as the posterior cerebral artery to supply the hypoperfusion area with blood. The 3-VO model in the rat has been established since 2003 and is acknowledged as a hypoperfusion model for testing cerebral arteriogenesis (Busch, Buschmann et al. 2003). By using the 3-VO model, relevant therapeutic stimulation of arteriogenesis was shown for instance by the application of GM-CSF (Buschmann, Circulation 2003).
The characterization of arteriogenesis was carried out via measurement of the artery or blood vessel diameter (posterior cerebral artery—PCA) in addition to via a measurement of the cerebrovascular reactivity (perfusion reserves in the brain). Cerebrovascular anatomy was studied after maximal vasodilation by a modification of the postmortem latex perfusion method of Maeda et al (Maeda, Hata et al. 1998).
CVR is reduced through selective inhibition of the bradykinin B1 and B2 signaling pathways. Negative CVR values are based on the Steal phenomenon (Kuwabara, Ichiya et al. 1995). (FIG. 5D). Upon increase of the CO2 partial pressure under normal conditions, vessels in the brain are capable of increasing blood flow to around 20% of the normal blood flow. Directly after the 3-VO experiment no cerebrovascular reactivity is detectable anymore. Blood flow recovers within 3 weeks post 3-VO and the perfusion reserve is restored to around 10%.

[3] = target: T1, Bradykinin receptor 1 (Homo sapiens, UniProt P46663); conditions: described as moderate; cited from earlier work
T1 sequence (P46663 1-353): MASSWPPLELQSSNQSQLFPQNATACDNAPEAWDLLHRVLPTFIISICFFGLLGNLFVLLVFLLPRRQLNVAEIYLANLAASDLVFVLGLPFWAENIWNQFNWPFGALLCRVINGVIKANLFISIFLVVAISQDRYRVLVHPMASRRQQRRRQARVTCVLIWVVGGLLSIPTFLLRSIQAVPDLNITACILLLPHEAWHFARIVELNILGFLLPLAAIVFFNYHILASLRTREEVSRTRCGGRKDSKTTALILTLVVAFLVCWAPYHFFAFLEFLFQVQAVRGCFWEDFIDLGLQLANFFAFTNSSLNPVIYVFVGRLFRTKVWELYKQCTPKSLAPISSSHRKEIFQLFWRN

[4] = relative to the natural ligand Lys-desArg-bradykinin; cited from earlier work
[5] = target: T1, Bradykinin receptor 1; conditions: described as moderate; cited from earlier work; remark: listed apart in the source

Compound | arteriogenesis (collateral growth) [1] | artery diameter changes (posterior cerebral artery) [1] | collateral arterial growth [1] | cerebrovascular reactivity (CVR), increase in blood flow [2] | cerebral arteriogenesis [1] | cerebral arteriogenesis ([1]; listed as Sar[DPhe8]desArg-bradykinin) | diameter of the posterior cerebral artery (PCA) ([1]; rat, seven days after 3-VO, versus untreated rats after 3-VO (FIG. 6B,C)) | cerebrovascular reactivity (CVR) ([2]; 1 week post 3-VO (FIG. 6D)) | potency relative to the natural ligand Lys-desArg-bradykinin [3] [fold less] | susceptibility toward proteolysis [4] | affinity relative to the natural ligand Lys-desArg-bradykinin [5]
NC(N)=NCCC[C@@H](N)C(=O)N[C@@H](CCCN=C(N)N)C(=O)N1CCC[C@H]1C(=O)N1C[C@H](O)C[C@H]1C(=O)NCC(=O)N[C@@H](Cc1cccs1)C(=O)N[C@@H](CO)C(=O)N1Cc2ccccc2C[C@@H]1C(=O)N1[C@H](C(=O)N[C@@H](CCCN=C(N)N)C(=O)O)C[C@@H]2CCCC[C@@H]21 [HOE-140, icatibant] | inhibited | reduced collateral growth | slightly | no increase in blood flow is detected | – | – | – | – | – | – | –
Sar-[D-Phe8]-des-Arg9-bradykinin [R838] | – | – | – | – | stimulated therapeutically | therapeutically enhanced | significantly greater | significantly increased | ~2 | lower susceptibility toward proteolysis | about 11 fold less
(Des-Arg^9, Leu^8)-bradykinin [H1960] | inhibited | increase in diameter to a lesser extent than in the untreated controls | strongly reduced | no increase in blood flow is detected | – | – | – | – | – | – | –
